“Also recorded” adds a separate entry of the source.
Tests used:
Format in all cases: cell-based, human
SW480 cells = experiment: Cell proliferation, Cell Trace Violet flow cytometry, SW480; settings: SW480 cells with shRNA control, 10 μM, 96 h
Experimental: FIG. 4A: Relative quantification of cell proliferation in SW480 cells transfected with shRNA for shRNA control (shCtrl) (from the first to the fourth columns from left to right) or HSP110-silencing (sh110) (from the fifth to the last columns, from left to right) treated with Ctrl (DMSO), compound 33, compound 52, and comparative compound 61 at a concentration of 10 μM during 96 h (Histogram columns from the left to the right). Ordinate: Percentage of SW480 cell proliferation (scale 20) for the upper figure; Statistical analysis has been performed by ANOVA **: (p<0.05); ***: p<0.005. Western blot of HSP110 and actin (first and second line of blots) for the shCtrl SW480 cells and sh110 SW480 cells (first and second columns).
(§1) Colorectal cells lines were purchased from the American Type Culture Collection. CT-26 and HCT116 were cultured in Roswell Park Memorial Institute 1640 medium. […]
(§2) Proliferation was determined by staining cells with Cell Trace Violet (Invitrogen-C34557) according to the manufacturer's procedure. Cell divisions were detected over 96 h by flow cytometry (LSRII cytometer) and the number of cell generations was estimated by ModFit software. […]

Bcl2 and Bcl-xL = experiment: Western blot of anti-apoptotic proteins Bcl2 and Bcl-xL in DLBCL cell lines; settings: TMD8 and HBL1, 76 h in vitro treatment
Experimental: FIG. 10D: Expression analysis of BcL2 (first line), BcL-XL (second line), and Actin (third line) in TMD8 human B cell lymphoma cell line or in HBL1 human diffuse large B-cell lymphoma cell line, both cell lines being treated with Control (DMSO), compound 33 and compound 52.
It has also been shown that compounds 33 and 52 reduce the expression of the anti-apoptotic proteins Bcl2 and Bcl-xL in these two human diffuse large B-cell lymphoma cell lines, as determined by Western blotting after a 76 h in vitro treatment with compound 33 or 52.

NFκB signaling pathway = experiment: Western blot of NFκB signaling and Myd88 in DLBCL cell lines; settings: for IkB phosphorylation (P-IKB): two DLBCL cell lines, 24 h of treatment
Experimental: FIG. 10B: Expression of HSP110 (first line), P-P65 (S276) (second line), P65 (third line), Myd88 (fourth line) and Actin (fifth line) in TMD8 human B cell lymphoma cell line (left part of FIG. 10B) or in HBL1 human diffuse large B-cell lymphoma cell line (right part of FIG. 10B), both cell lines being treated with Control (DMSO) and compound 33.
FIG. 10C: Expression, after 24 h of treatment, of HSP110 (first line), P-IKB (second line), IKB (third line) and Actin (fourth line) in TMD8 human B cell lymphoma cell line (right part of FIG. 10C) or in OCI-Ly3 human diffuse large B-cell lymphoma cell line (left part of FIG. 10C), both cell lines being treated with Control (DMSO), control compound 61, compound 52 and compound 33.

DLBCL cell lines = experiment: Viability of B-cell lymphoma cell lines (Annexin V/7AAD staining); settings: 96 h, 5-40 μM
Text: FIG. 10E: Viability of various B-cell lymphoma cell lines treated with increasing concentrations of compound 33 (inhibitor 33).
Groups of bars, from the left to the right of FIG. 10E: (i) OCI-Ly10 human diffuse large B-cell lymphoma cell line, (ii) HBL1 human diffuse large B-cell lymphoma cell line, (iii) TMD8 human B cell lymphoma cell line, (iv) OCI-Ly3 human large B-cell lymphoma cell line and (v) U2932 human diffuse large B-cell lymphoma cell line.
In each group of bars, from the left to the right: (i) Control, without treatment, (ii) Compound 33 at 5 μM, (iii) Compound 33 at 10 μM, (iv) Compound 33 at 20 μM, (v) Compound 33 at 30 μM, (vi) Compound 33 at 40 μM.
FIG. 10F: Viability of various B-cell lymphoma cell lines treated with increasing concentrations of compound 52 (inhibitor 52).
Groups of bars, from the left to the right of FIG. 10F: (i) TMD8 human B cell lymphoma cell line and (ii) OCI-Ly3 human large B-cell lymphoma cell line.
In each group of bars, from the left to the right: (i) Control, without treatment (0 μM), (ii) Compound 52 at 5 μM, (iii) Compound 52 at 10 μM, (iv) Compound 52 at 20 μM, (v) Compound 52 at 30 μM, (vi) Compound 52 at 40 μM.

HCT116 cells = experiment: Cell proliferation, Cell Trace Violet flow cytometry, HCT116; settings: HCT116 cells with shRNA control, 10 μM, 96 h
Experimental: FIG. 4B: Relative quantification of cell proliferation in HCT116 cells transfected with shRNA for shRNA control (shCtrl) (from the first to the fourth columns from left to right) or HSP110-silencing (sh110) ((from the fifth to the last columns, from left to right) left to right) treated with Ctrl (DMSO), compound 33, compound 52, and comparative compound 61 at a concentration of 10 μM during 96 h (Histogram from the left to the right). Ordinate: Percentage of HCT116 cell proliferation (scale 20) for the lower figure. Statistical analysis has been performed by ANOVA **: (p<0.05); ***: p<0.005. Western blot of HSP110 and actin (first and second line of blots) for the shCtrl HCT116 cells and sh110 HCT116 cells (first and second columns).
as §1, §2

Row | Structure (SMILES) | hampering of cell proliferation (SW480 cells) [%] | expression of anti-apoptotic protein Bcl2 (Bcl2 and Bcl-xL) | expression of anti-apoptotic protein Bcl-xL (Bcl2 and Bcl-xL) | Myd88 expression (NFκB signaling pathway; TMD8 and HBL1 DLBCL cell lines) | NFκB signaling pathway (P-p65) (NFκB signaling pathway; TMD8 and HBL1 DLBCL cell lines) | IkB phosphorylation (P-IKB) (NFκB signaling pathway) | viability of DLBCL cell lines (DLBCL cell lines; OCI-Ly10, HBL1, TMD8, OCI-Ly3 and U2932) | hampering of cell proliferation (HCT116 cells) | viability of DLBCL cell lines (DLBCL cell lines; TMD8 and OCI-Ly3)
1 | COc1ccc(-c2ncc(-c3ncc(-c4cc(OC)c(OC)c(OC)c4)cc3/C=C/c3ccccc3)cc2C)cc1OC [compound 33, (E)-6′-(3,4-Dimethoxyphenyl)-5′-methyl-3-styryl-5-(3,4,5-trimethoxyphenyl)-2,3′-bipyridine] | 60 | reduce | reduce | reduces | reduces; also recorded: strong decrease | decrease | reduces the viability | around 40% | –
2 | COc1cc(-c2cnc(-c3cnc(-c4cc(OC)c(OC)c(OC)c4)c(C)c3)c(/C=C/c3ccccc3)c2)cc(OC)c1OC [compound 52, (E)-5′-Methyl-3-styryl-5,6′-bis(3,4,5-trimethoxyphenyl)-2,3′-bipyridine] | 82 | reduce | reduce | – | strong decrease | decrease | – | around 40% | reduces the viability

From patent US12070452B2, “Compounds targeting HSP110 protein for cancer treatment” (INSERM (Institut National de la Santé et de la Recherche …, priority 2018, dated 2024)
